Source: patent US7531646B2, “β-D-ribosidase activity indicators with a chromogenic substrate” (priority 2001, dated 2009)
Counter-ions that a name gives are not always drawn.

Columns and labels:
Experiment in all cases: Substrate hydrolysis on Columbia agar
[1] = tested on: Streptococcus pneumoniae; format: cell-based; details: Streptococcus pneumoniae NCTC 7465; 300 mg/l; 18 hours
[2] = tested on: Enterococcus casseflavus; format: cell-based; details: Enterococcus casseflavus NCTC 12361; 300 mg/l; 18 hours
[3] = tested on: Vibrio cincinnatiensis; format: cell-based; details: Vibrio cincinnatiensis NCTC 12012; 300 mg/l; 18 hours
[4] = tested on: Salmonella orthmarchen; format: cell-based; details: Salmonella orthmarchen SAX 59; 300 mg/l; 18 hours
[5] = tested on: Bacillus licusniforms; format: cell-based; details: Bacillus licusniforms NCIMB 9375; 300 mg/l; 18 hours
[6] = tested on: Vibrio harveyi; format: cell-based; details: Vibrio harveyi NCTC 11346; 300 mg/l; 18 hours
[7] = tested on: M. morganii; format: cell-based; details: 300 mg/l, 18 hours
[8] = tested on: Streptococcus salivarius; format: cell-based; details: Streptococcus salivarius NCTC 8618; 300 mg/l; 18 hours
[9] = tested on: Providencia alcalifaciens; format: cell-based; details: 300 mg/l, 18 hours
[10] = tested on: Salmonella typhi; format: cell-based; details: Salmonella typhi NCTC 8385; 300 mg/l; 18 hours
[11] = tested on: Aeromonas hydrophila; format: cell-based; parameters: key to the marks not given beside the values; details: Aeromonas hydrophila NCTC 8049; 300 mg/l; 18 hours
[12] = tested on: P. aeruginosa; format: cell-based; details: 300 mg/l, 18 hours
[13] = tested on: Staphylococcus saprophyticus; format: cell-based; details: 300 mg/l, 18 hours
[14] = tested on: C. diphtheriae; format: cell-based, Corynebacterium diphtheriae; details: 300 mg/l, 18 hours
[15] = tested on: Vibrio cholerae; format: cell-based; details: 300 mg/l, 18 hours
[16] = tested on: Vibrio anguillarum; format: cell-based; details: Vibrio anguillarum NCTC 12159; 300 mg/l; 18 hours
[17] = tested on: Enterococcus gellinarum; format: cell-based; details: Enterococcus gellinarum NCTC 11428; 300 mg/l; 18 hours
[18] = tested on: Streptococcus milleri; format: cell-based; details: Streptococcus milleri wild; 300 mg/l; 18 hours
[19] = tested on: Salmonella alachia; format: cell-based; details: Salmonella alachia SAX 60; 300 mg/l; 18 hours
From the text: (§1) This was achieved using a densitometer.
(§2) The same method was used as in Example 1.

[20] = tested on: Shigella flexneri; format: cell-based; details: 300 mg/l, 18 hours
From the text: as §1, §2

[21] = tested on: Vibrio mimicus; format: cell-based; details: Vibrio mimicus NCTC 11435; 300 mg/l; 18 hours
From the text: as §1, §2

[22] = tested on: Salmonella motevideo; format: cell-based; details: Salmonella motevideo SAX 55; 300 mg/l; 18 hours
From the text: as §1, §2

[23] = tested on: Shigella sonnei; format: cell-based; details: 300 mg/l, 18 hours
From the text: as §1, §2

[24] = tested on: Shigella boydii; format: cell-based; details: 300 mg/l, 18 hours
From the text: as §1, §2

[25] = tested on: Streptococcus agalactiae; format: cell-based; details: Streptococcus agalactiae NCTC 8181; 300 mg/l; 18 hours
[26] = tested on: E. coli 0157; format: cell-based; details: 300 mg/l, 18 hours
[27] = tested on: Salmonella oranienburg; format: cell-based; details: Salmonella oranienburg SAX 56; 300 mg/l; 18 hours
[28] = tested on: Staphylococcus epidermidis; format: cell-based; details: 300 mg/l, 18 hours
[29] = tested on: Enterococcus faecium; format: cell-based; details: 300 mg/l, 18 hours

Question: What does the source list for `O=c1cc(-c2ccc(OC3OC(CO)C(O)C3O)c(O)c2)oc2ccccc12` [DHF-riboside, 3′,4′-dihydroxyflavone-4′-β-D-ribofuranoside Sodium Salt]?
Answer: Hydrolysis by Gram positive organisms [1]: −; Hydrolysis by Gram positive organisms [2]: −; Hydrolysis by Gram negative bacteria [3]: −; Hydrolysis by Gram negative bacteria [4]: ++; Hydrolysis by Gram positive organisms [5]: −; Hydrolysis by Gram negative bacteria [6]: ++; Hydrolysis by Gram negative bacteria ([7]; M. morganii MMO 1): +; Hydrolysis by Gram negative bacteria ([7]; M. morganii MMO 2): +; Hydrolysis by Gram negative bacteria ([7]; M. morganii NCTC 235): −; Hydrolysis by Gram positive organisms [8]: −; Hydrolysis by Gram negative bacteria ([9]; Providencia alcalifaciens PAL 1): +; Hydrolysis by Gram negative bacteria ([9]; Providencia alcalifaciens PAL 2): −; Hydrolysis by Gram negative bacteria [10]: ++; Hydrolysis by Gram negative bacteria [11]: ++; Hydrolysis by Gram negative bacteria ([12]; P. aeruginosa ATCC 10145): +; Hydrolysis by Gram negative bacteria ([12]; P. aeruginosa NCTC 10662): +; Hydrolysis by Gram positive organisms ([13]; Staphylococcus saprophyticus 1): ++; Hydrolysis by Gram positive organisms ([13]; Staphylococcus saprophyticus 2): ++; Hydrolysis by Gram positive organisms ([13]; Staphylococcus saprophyticus 3): ++; Hydrolysis by Gram positive organisms ([13]; Staphylococcus saprophyticus 4): ++; Hydrolysis by Gram positive organisms ([13]; Staphylococcus saprophyticus 5): ++; Hydrolysis by Gram positive organisms ([14]; C. diphtheriae NCTC 3987): +; Hydrolysis by Gram positive organisms ([14]; C. diphtheriae NCTC 10356): ++; Hydrolysis by Gram positive organisms ([14]; C. diphtheriae NCTC 11397): ++; Hydrolysis by Gram positive organisms ([14]; Corynebacterium diphtheria NEQAS): ++; Hydrolysis by Gram negative bacteria ([15]; Vibrio cholera NCTC 6585): −; Hydrolysis by Gram negative bacteria ([15]; Vibrio cholera NCTC 7270): −; Hydrolysis by Gram negative bacteria ([15]; Vibrio cholera NCTC 8021): −; Hydrolysis by Gram negative bacteria ([15]; Vibrio cholera NCTC 10732): −; Hydrolysis by Gram negative bacteria ([15]; Vibrio cholera NCTC 12945): −; Hydrolysis by Gram negative bacteria ([15]; Vibrio cholerae NCTC 7254): −; Hydrolysis by Gram negative bacteria ([15]; Vibrio cholerae NCTC 8042): −; Hydrolysis by Gram negative bacteria ([15]; Vibrio cholerae NCTC 10255): −; Hydrolysis by Gram negative bacteria ([15]; Vibrio cholerae NCTC 10954): −; Hydrolysis by Gram negative bacteria [16]: −; Hydrolysis by Gram positive organisms [17]: +; Hydrolysis by Gram positive organisms [18]: −; Hydrolysis by Gram negative bacteria [19]: ++; Hydrolysis by Gram negative bacteria ([20]; Shigella flexneri NCTC 8192): ++; Hydrolysis by Gram negative bacteria ([20]; Shigella flexneri NCTC 9723): ++; Hydrolysis by Gram negative bacteria ([20]; Shigella flexneri NCTC 9780): ++; Hydrolysis by Gram negative bacteria [21]: −; Hydrolysis by Gram negative bacteria [22]: ++; Hydrolysis by Gram negative bacteria ([23]; Shigella sonnei NCTC 8219): ++; Hydrolysis by Gram negative bacteria ([23]; Shigella sonnei NCTC 8574): ++; Hydrolysis by Gram negative bacteria ([23]; Shigella sonnei NCTC 8586): ++; Hydrolysis by Gram negative bacteria ([23]; Shigella sonnei NCTC 9774): ++; Hydrolysis by Gram negative bacteria ([23]; Shigella sonnei NCTC 10352): ++; Hydrolysis by Gram negative bacteria ([24]; Shigella boydii NCTC 9327): ++; Hydrolysis by Gram negative bacteria ([24]; Shigella boydii NCTC 9732): ++; Hydrolysis by Gram negative bacteria ([24]; Shigella boydii NCTC 9850): ++; Hydrolysis by Gram positive organisms [25]: −; Hydrolysis by Gram negative bacteria ([26]; E. coli 0157 NCTC 12079): ++; Hydrolysis by Gram negative bacteria ([26]; E. coli 0157 NCTC 12080): ++; Hydrolysis by Gram negative bacteria ([26]; E. coli 0157 NCTC 12900): ++; Hydrolysis by Gram negative bacteria ([26]; E. coli 0157 NCTC 13125): ++; Hydrolysis by Gram negative bacteria ([26]; E. coli 0157 NCTC 13126): ++; Hydrolysis by Gram negative bacteria ([26]; E. coli 0157 NCTC 13127): ++; Hydrolysis by Gram negative bacteria ([26]; E. coli 0157 NCTC 13128): ++; Hydrolysis by Gram negative bacteria [27]: ++; Hydrolysis by Gram positive organisms ([28]; Staphylococcus epidermidis RB60): ++; Hydrolysis by Gram positive organisms ([28]; Staphylococcus epidermidis RB62): +; Hydrolysis by Gram positive organisms ([28]; Staphylococcus epidermidis RB63): +; Hydrolysis by Gram positive organisms ([28]; Staphylococcus epidermidis RB64): +; Hydrolysis by Gram positive organisms ([28]; Staphylococcus epidermidis RB65): +; Hydrolysis by Gram positive organisms ([29]; Enterococcus faecium 1): −; Hydrolysis by Gram positive organisms ([29]; Enterococcus faecium 2): −; Hydrolysis by Gram positive organisms ([29]; Enterococcus faecium 3): −; Hydrolysis by Gram positive organisms ([29]; Enterococcus faecium 4): +; Hydrolysis by Gram positive organisms ([29]; Enterococcus faecium 5): −; Hydrolysis by Gram positive organisms ([29]; Enterococcus faecium 6): +; Hydrolysis by Gram positive organisms ([29]; Enterococcus faecium 7): −; Hydrolysis by Gram positive organisms ([29]; Enterococcus faecium 121285 - wild ′99): −
